In ChEMBL document CHEMBL1136124, “Copper complex of hydroxyl-substituted triazamacrocyclic ligand and its antitumor activity” (2003):

Key:
[1] = system: HXO-RB44 cell line; assay: In vitro antitumor activity of concentration of 10-6 mol.L-1 against HXO-RB44 cell line using MTT assay; assay type: functional, Homo sapiens; details: for inhibition: Homo sapiens
[2] = system: HXO-RB44 cell line; assay: In vitro antitumor activity of concentration of 10-4 mol.L-1 against HXO-RB44 cell line using MTT assay; assay type: functional, Homo sapiens; details: for inhibition: Homo sapiens
[3] = system: Bel-7402; assay: In vitro antitumor activity of concentration of 10-3 mol.L-1 against BEL-7402 cell line using MTT assay; assay type: functional, Homo sapiens; details: for inhibition: Homo sapiens
[4] = system: HXO-RB44 cell line; assay: In vitro antitumor activity of concentration of 10-5 mol.L-1 against HXO-RB44 cell line using MTT assay; assay type: functional, Homo sapiens; details: for inhibition: Homo sapiens
[5] = system: Bel-7402; assay: In vitro antitumor activity of compound at a concentration 10-4 mol.L-1 against BEL-7402 cell line using MTT assay; assay type: functional, Homo sapiens; details: for inhibition: Homo sapiens
[6] = system: Bel-7402; assay: In vitro antitumor activity of compound at a […] mol.L-1 against BEL-7402 cell line using MTT assay; assay type: functional, cell-based; details: Homo sapiens

Row | Molecule | Inhibition [1] [%] | Inhibition [2] [%] | Inhibition [3] [%] | Inhibition [4] [%] | Inhibition [5] [%] | inhibition [1] [%] | inhibition [6] [%] | inhibition [2] [%] | inhibition [3] [%] | inhibition [4] [%] | inhibition [5] [%]
1 | OC1CNCCNCCNC1 | 1 | 3 | 34 | 3 | 16 | – | – | – | – | – | –
2 | COPPER | – | – | – | – | – | 0 | 2 | 5 | 81 | 3 | 3
3 | [1,4,7]Triazecan-9-ol copper complex | – | – | – | – | – | 2 | 11 | 64 | 97 | 13 | 47
